Data: patent US10563263B2, “Genetic polymorphisms associated with statin response and cardiovascular diseases, methods of detection and uses thereof” (CELERA CORPORATION, priority 2010, dated 2020)

Tested on: CVD (CHD or stroke)
Test: CARE: SNP by pravastatin treatment interaction, logistic regression (synergy index), CVD endpoint
Type: in vivo, human
Details: CARE
Source text: CARE was a secondary prevention trial and WOSCOPS was a primary prevention trial.
The CHD endpoint was defined in the analyses herein of CARE as a composite endpoint of fatal CHD, definite non-fatal MI, or revascularization, and was defined in the analyses herein of WOSCOPS as a composite endpoint of death from CHD, nonfatal MI, or revascularization. In both the CARE and WOSCOPS analyses herein, the CVD endpoint was defined as a composite endpoint of CHD or stroke. […] Revascularization, which can include percutaneous transluminal coronary angioplasty (PTCA), stent placement, and coronary artery bypass graft (CABG), are medical interventions that indicate the presence of CHD.
Cohort and case-only study designs were used to identify SNPs associated with response to statin treatment.
For each SNP, a logistic regression model having treatment status as the dependent variable and SNP as the independent predictor variable was performed, with terms for age, sex and race included in the model as covariates. The anti-log of the regression coefficient corresponding to the SNP is an estimate of the synergy index (SI) (Davis et al., “Imputing gene-treatment interactions when the genotype distribution is unknown using case-only and putative placebo analyses-a new method for the Genetics of Hypertension Associated Treatment (GenHAT) study”, Statistics in Medicine 23: (2004), pages 2413-2427). The SI is a ratio of odds ratios: for example in the CARE and WOSCOPS studies, the SI represents the factor by which the odds-ratio of statin treatment, compared with placebo, among major homozygous individuals is multiplied by in order to obtain the odds-ratio of treatment vs. placebo among heterozygous individuals; and multiplied by a second time to obtain the odds-ratio of treatment vs. placebo in minor homozygous individuals. […] In a randomized clinical trial, genotype and treatment are independent by design.

## CC[C@H](C)C(=O)O[C@H]1C[C@H](O)C=C2C=C[C@H](C)[C@H](CC[C@@H](O)C[C@@H](O)CC(=O)O)[C@H]21 [Pravastatin, pravastatin]
rs152707 allele A, model ADD, Imputed
  OR (synergy index, SNP x pravastatin treatment interaction): 0.684
rs152712 allele C, model ADD, Genotyped
  OR (synergy index, SNP x pravastatin treatment interaction): 0.6783
rs208026 allele A, DOM model, Genotyped
  OR (SNP x pravastatin interaction): 1.457
rs208029 allele T, DOM model, Imputed
  OR (SNP x pravastatin interaction): 1.41
rs208757 allele G, DOM model, Imputed
  OR (SNP x pravastatin interaction): 1.423
rs229775 allele A, REC model, Imputed
  OR (SNP x pravastatin interaction): 0.3933
rs229815 allele T, REC model, Imputed
  OR (SNP x pravastatin interaction): 0.4053
rs229829 allele C, REC model, Imputed
  OR (SNP x pravastatin interaction): 0.5066
rs229831 allele A, REC model, Imputed
  OR (SNP x pravastatin interaction): 0.3945
rs238252 allele G, ADD model, Imputed
  OR (SNP x pravastatin interaction): 1.66
rs238252 allele G, DOM model, Imputed
  OR (SNP x pravastatin interaction): 1.848
rs1444741 allele A, model DOM, Imputed
  OR (synergy index, SNP x pravastatin treatment interaction): 0.6595
rs1449916 allele C, model DOM, Imputed
  OR (synergy index, SNP x pravastatin treatment interaction): 0.5892
rs1459523 allele A, model ADD, Imputed
  OR (synergy index, SNP x pravastatin treatment interaction): 1.366
rs1476714 allele A, model DOM, Imputed
  OR (synergy index, SNP x pravastatin treatment interaction): 0.6618
rs1486723 allele C, model REC, Imputed
  OR (synergy index, SNP x pravastatin treatment interaction): 0.4458
rs1495375 allele A, model ADD, Imputed
  OR (synergy index, SNP x pravastatin treatment interaction): 0.741
rs1495375 allele A, model DOM, Imputed
  OR (synergy index, SNP x pravastatin treatment interaction): 0.6085
rs1495381 allele T, model REC, Imputed
  OR (synergy index, SNP x pravastatin treatment interaction): 1.776
rs1498061 allele C, model ADD, Imputed
  OR (synergy index, SNP x pravastatin treatment interaction): 0.4939
rs1498992 allele G, model DOM, Imputed
  OR (synergy index, SNP x pravastatin treatment interaction): 0.5981
rs1499001 allele T, model DOM, Imputed
  OR (synergy index, SNP x pravastatin treatment interaction): 0.5667
rs1512988 allele A, model ADD, Imputed
  OR (synergy index, SNP x pravastatin treatment interaction): 0.7274
rs1512988 allele A, model DOM, Imputed
  OR (synergy index, SNP x pravastatin treatment interaction): 0.6077
rs1512989 allele T, model ADD, Imputed
  OR (synergy index, SNP x pravastatin treatment interaction): 0.7274
rs1512989 allele T, model DOM, Imputed
  OR (synergy index, SNP x pravastatin treatment interaction): 0.6077
rs1512991 allele T, model ADD, Imputed
  OR (synergy index, SNP x pravastatin treatment interaction): 0.7286
rs1512991 allele T, model DOM, Imputed
  OR (synergy index, SNP x pravastatin treatment interaction): 0.6184
rs1524306 allele C, model ADD, Imputed
  OR (synergy index, SNP x pravastatin treatment interaction): 1.366
rs1524310 allele G, model ADD, Imputed
  OR (synergy index, SNP x pravastatin treatment interaction): 1.366
rs1527059 allele A, model DOM, Imputed
  OR (synergy index, SNP x pravastatin treatment interaction): 0.5689
rs1535866 allele G, model DOM, Imputed
  OR (synergy index, SNP x pravastatin treatment interaction): 1.391
rs1567740 allele T, model ADD, Imputed
  OR (synergy index, SNP x pravastatin treatment interaction): 0.7274
rs1567740 allele T, model DOM, Imputed
  OR (synergy index, SNP x pravastatin treatment interaction): 0.6032
rs1572573 allele A, model DOM, Imputed
  OR (synergy index, SNP x pravastatin treatment interaction): 1.748
rs1577497 allele C, model REC, Imputed
  OR (synergy index, SNP x pravastatin treatment interaction): 0.4912
rs1581514 allele T, model ADD, Imputed
  OR (synergy index, SNP x pravastatin treatment interaction): 1.353
rs1582321 allele T, model DOM, Imputed
  OR (synergy index, SNP x pravastatin treatment interaction): 0.5814
rs1582322 allele A, model DOM, Imputed
  OR (synergy index, SNP x pravastatin treatment interaction): 0.5859
rs1582323 allele A, model DOM, Imputed
  OR (synergy index, SNP x pravastatin treatment interaction): 0.5825
rs1592485 allele C, model DOM, Imputed
  OR (synergy index, SNP x pravastatin treatment interaction): 0.5835
rs1600954 allele T, model ADD, Imputed
  OR (synergy index, SNP x pravastatin treatment interaction): 1.379
rs1705261 allele A, model REC, Imputed
  OR (synergy index, SNP x pravastatin treatment interaction): 1.775
rs1832222 allele G, model DOM, Imputed
  OR (synergy index, SNP x pravastatin treatment interaction): 1.612
rs1861327 allele G, model DOM, Imputed
  OR (synergy index, SNP x pravastatin treatment interaction): 0.5814
rs1868581 allele G, model ADD, Imputed
  OR (synergy index, SNP x pravastatin treatment interaction): 1.366
rs1874313 allele A, model ADD, Imputed
  OR (synergy index, SNP x pravastatin treatment interaction): 0.7419
rs1874313 allele A, model DOM, Imputed
  OR (synergy index, SNP x pravastatin treatment interaction): 0.615
rs1876409 allele C, DOM model, Imputed
  OR (SNP x pravastatin interaction): 0.6151
rs1913201 allele G, ADD model, Imputed
  OR (SNP x pravastatin interaction): 0.7218
rs1913201 allele G, DOM model, Imputed
  OR (SNP x pravastatin interaction): 0.6464
rs1936871 allele G, DOM model, Genotyped
  OR (SNP x pravastatin interaction): 0.571
rs1961157 allele T, REC model, Imputed
  OR (SNP x pravastatin interaction): 0.6068
rs1987179 allele T, ADD model, Imputed
  OR (SNP x pravastatin interaction): 0.7138
rs1987179 allele T, DOM model, Imputed
  OR (SNP x pravastatin interaction): 0.6634
rs1990023 allele T, DOM model, Imputed
  OR (SNP x pravastatin interaction): 0.6462
rs1995025 allele C, DOM model, Imputed
  OR (SNP x pravastatin interaction): 1.608
rs2016194 allele G, DOM model, Imputed
  OR (SNP x pravastatin interaction): 0.6626
rs2023651 allele T, ADD model, Imputed
  OR (SNP x pravastatin interaction): 0.682
rs2024902 allele A, ADD model, Imputed
  OR (SNP x pravastatin interaction): 1.998
rs2024902 allele A, DOM model, Imputed
  OR (SNP x pravastatin interaction): 2.076
rs2025107 allele A, DOM model, Imputed
  OR (SNP x pravastatin interaction): 1.856
rs2025108 allele T, DOM model, Imputed
  OR (SNP x pravastatin interaction): 1.856
rs2052428 allele C, DOM model, Imputed
  OR (SNP x pravastatin interaction): 0.5903
rs2053230 allele C, ADD model, Imputed
  OR (SNP x pravastatin interaction): 0.5414
rs2062448 allele T, DOM model, Imputed
  OR (SNP x pravastatin interaction): 0.5462
rs2063420 allele C, REC model, Imputed
  OR (SNP x pravastatin interaction): 1.755
rs2063591 allele C, ADD model, Imputed
  OR (SNP x pravastatin interaction): 0.7519
rs2063591 allele C, DOM model, Imputed
  OR (SNP x pravastatin interaction): 0.6237
rs2095586 allele A, DOM model, Imputed
  OR (SNP x pravastatin interaction): 1.655
rs2095606 allele A, DOM model, Imputed
  OR (SNP x pravastatin interaction): 0.5466
rs2102374 allele A, ADD model, Imputed
  OR (SNP x pravastatin interaction): 0.6269
rs2102374 allele A, DOM model, Imputed
  OR (SNP x pravastatin interaction): 0.5989
rs2108426 allele C, DOM model, Imputed
  OR (SNP x pravastatin interaction): 0.6626
rs2110664 allele A, DOM model, Imputed
  OR (SNP x pravastatin interaction): 1.429
